Test results taken from ChEMBL document CHEMBL1127865, “C-linked pyrazole biaryl tetrazoles as antagonists of angiotensin II Part II: pharmacokinetics and an efficient regioselective synthesis” (Bioorg Med Chem Lett, 1994).

Tests used:
Type in all cases: ADME, organism-based
[1] = Compound was evaluated for plasma clearance in rat; details: read-out: Clp
[2] = Compound was evaluated for volume of distribution in rat; details: in vivo
[3] = Oral bioavailability in rat; details: in vivo
[4] = Compound was evaluated for plasma half life in rat

clearance [1] | Vd [2] | bioavailability [3] | half-life [4] | SMILES
0.12 mL/min/kg | 0.16 L/kg | 26% | 888 min | CCCCc1nn(CCCC)c(C(=O)O)c1Cc1ccc(-c2ccccc2-c2nn[nH]n2)cc1
0.2 mL/min/kg | 0.2 L/kg | 58% | 738 min | CCCCc1nn(CC2CC2)c(C(=O)O)c1Cc1ccc(-c2ccccc2-c2nn[nH]n2)cc1
